Measured values published in US4610987A, “Imidazoquinazolin-2-one compounds” (Daiichi Seiyaku Co., Ltd., priority 1983, dated 1986).
Counter-ions that a name gives are not always drawn. Like-named read-outs stand apart in the source and are kept apart here.

What was measured:
[1] = molecular target: human platelet PDE I (Homo sapiens, UniProt O76074); assay: Inhibitory activity on phosphodiesterase, platelet PDE I (cGMP); format: biochemical; details: cGMP substrate
Method: (§1) Phosphodiesterase fractions were separated from 105,000×g of supernatant fractions from human platelets and heart by DEAE-cellulose column chromatography using the method of Timothy et al. (Arch. Biochem. Biophy. 196, 465-474, 1979) with minor modifications. These fractions were designated PDE I, PDE II and PDE III, depending upon the order of their emergence from the DEAE-cellulose column.
(§2) Phosphodiesterase activity was measured by the method of Thompson and Appleman (Biochemistry 10, 311-316, 1971) with slight modifications. The reaction mixture consisted of 25 mM of Tris-HCl (pH 7.4), 5 mM of MgCl2, 1 μM of [^3 H]-cAMP or cGMP (approximate 20,000 cpm), various concentrations of a test compound and the enzyme preparation. After incubation for 10 minutes at 30° C., the reaction was terminated by boiling the reaction mixture for 45 seconds. 5'-[^3 H]-AMP or GMP formed by phosphodiesterase was converted to [^3 H]adenosine or [^3 H]quanosine by snake venom (Botherop Atrox) containing 5'-nucleotidase and the product isolated by a cation exchange resin was counted in a liquid scintillation counter.

[2] = test system: human platelet PDE II; assay: Inhibitory activity on phosphodiesterase, platelet PDE II (cGMP); format: biochemical; details: cGMP substrate
Method: as §1, §2

[3] = molecular target: human platelet PDE III (Homo sapiens, UniProt Q14432); assay: biochemical; details: for IC50: cAMP substrate
Sequence of human platelet PDE III (Q14432 whole entry): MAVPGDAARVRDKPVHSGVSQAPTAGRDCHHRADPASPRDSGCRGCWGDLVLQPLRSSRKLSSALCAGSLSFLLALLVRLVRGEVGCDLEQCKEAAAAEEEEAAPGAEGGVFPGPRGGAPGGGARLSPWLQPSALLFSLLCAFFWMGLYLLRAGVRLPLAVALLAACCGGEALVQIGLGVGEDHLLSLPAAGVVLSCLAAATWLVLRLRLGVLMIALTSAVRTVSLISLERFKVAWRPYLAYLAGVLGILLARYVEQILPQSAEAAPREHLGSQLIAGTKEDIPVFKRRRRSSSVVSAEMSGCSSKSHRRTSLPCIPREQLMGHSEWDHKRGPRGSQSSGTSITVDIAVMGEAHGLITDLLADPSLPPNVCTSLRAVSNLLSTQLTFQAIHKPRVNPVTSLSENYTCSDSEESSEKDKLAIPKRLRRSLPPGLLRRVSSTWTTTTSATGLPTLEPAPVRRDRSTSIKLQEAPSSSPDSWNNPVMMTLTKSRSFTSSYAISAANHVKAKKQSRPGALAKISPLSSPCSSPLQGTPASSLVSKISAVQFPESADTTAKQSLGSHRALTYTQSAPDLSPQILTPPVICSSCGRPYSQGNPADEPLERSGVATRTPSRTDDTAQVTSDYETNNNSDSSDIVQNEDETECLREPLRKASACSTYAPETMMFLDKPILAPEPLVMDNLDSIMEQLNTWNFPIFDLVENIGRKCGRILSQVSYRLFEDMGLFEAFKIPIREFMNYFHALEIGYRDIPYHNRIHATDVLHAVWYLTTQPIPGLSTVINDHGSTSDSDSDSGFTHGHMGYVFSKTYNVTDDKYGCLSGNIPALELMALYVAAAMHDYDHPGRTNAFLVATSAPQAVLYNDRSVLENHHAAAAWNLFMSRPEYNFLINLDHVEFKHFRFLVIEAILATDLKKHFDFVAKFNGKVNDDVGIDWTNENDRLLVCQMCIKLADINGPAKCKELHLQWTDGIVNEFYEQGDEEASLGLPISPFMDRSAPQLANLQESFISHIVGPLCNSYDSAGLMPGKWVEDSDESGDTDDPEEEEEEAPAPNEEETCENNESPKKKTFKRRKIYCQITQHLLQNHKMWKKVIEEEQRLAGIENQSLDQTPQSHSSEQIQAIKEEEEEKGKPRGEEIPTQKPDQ
Method: as §1, §2

[4] = molecular target: human heart PDE I; assay: Inhibitory activity on phosphodiesterase, heart PDE I (cGMP); format: biochemical; details: cGMP substrate
Method: as §1, §2

[5] = molecular target: human heart PDE III; assay: Inhibitory activity on phosphodiesterase, heart PDE III (cAMP); format: biochemical; details: for IC50: cAMP substrate; for activity on heart PDE (in words): Table 6
Method: as §1, §2

[6] = test system: platelet aggregation (rat platelet-rich-plasma); assay: Test of Platelet Aggregation Inhibition (in vitro), rat PRP; format: cell-based, Wistar Imamichi rat; details: for IC50: Platelet, in vitro, rat blood
Method: (§3) The test was performed as follows in accordance with the method of Ashida et al, Thrombosis and Haemostasis, Vol. 40, 542 (1979).
(§4) Blood was taken by puncture from the heart of a Wistar Imamichi rat under anesthesia with pentobarbital into a syringe containing 1/10 volume of a 3.13% aqueous solution of sodium citrate dihydrate, and the citrated blood was centrifuged to obtain a platelet-rich-plasma (PRP). In the same manner, citrated blood was collected from the vein of a healthy human who had not taken aspirin or any other anti-inflammatory agent since before 10 days, followed by centrifugation to obtain PRP. 5 μl of each test compound was added to 0.445 ml of each of these PRP samples, and the system was warmed at 30° C. for 1 minute. 50 μl of an aggregation inducer (ADP or collagen) was then added thereto, and platelet aggregation was determined according to the method of Born, Nature, Vol. 194, 927 (1962).

[7] = test system: platelet aggregation (human platelet-rich-plasma); assay: Test of Platelet Aggregation Inhibition (in vitro), human PRP; format: cell-based; details: human blood, ADP-induced
Method: as §3, §4

[8] = Solubility Test (water-solubility)
[9] = test system: platelet aggregation; assay: Test of Platelet Aggregation Inhibition (ex vivo; i.v.); format: in vivo, Wistar Imamichi rat; details: iv, 10 min, rat, i.v. 1.0 mg/Kg/min, 10 min
Method: As test animals, 5 to 6 Wistar Imamichi rats (body weight: about 260 g) that had been allowed food and water ad libitum were used per group. The test compound was dissolved in a physiological saline solution and continuously injected over a period of 10 or 15 minutes to the rats under anesthesia with pentobarbital through the femoral vein. Immediately after completion of the administration, citrated blood was collected from the heart, and platelet aggregation was determined in the same manner as in the test in vitro in Test Example 2.

[10] = test system: platelet aggregation; assay: Test of Platelet Aggregation Inhibition (ex vivo, p.o.); format: in vivo, Wistar Imamichi rat; details: Platelet, po, ex vivo, rat, 10 mg/Kg p.o., 1 hour, *P<0.05, **P<0.01, ***P<0.001
Method: One hour later, citrated blood was taken from the heart, and platelet aggregation was determined in the same manner as described in the in vitro test. The inhibitory activity was compared with that of control and expressed in terms of percent inhibition.

[11] = test system: platelet aggregation induced by B16 melanoma cells; assay: Inhibition on Platelet Aggregation Induced by Cancer Cells (in vitro), B16; format: cell-based, C57BL/6 mouse; set-up: key: +: Aggregation was observed.; ±: Aggregation was partially inhibited.; -: No aggregation was observed
Method: (§5) It is known nowadays that platelet aggregation plays an important role in metastasis of cancers. […] Tanaka et al. The effect of the compounds of this invention to inhibit the above-described cancer cell-induced platelet aggregation was tested as follows. Cell suspensions of B16 or 3LL were prepared according to the method of Tanaka et al, Invarsion and Metastasis, Vol. 2, 289 (1982). […] Platelet aggregation of the sample system was determined according to the method of Born, and the platelet aggregation inhibitory activity was expressed by the following scale: […]

[12] = test system: platelet aggregation induced by Lewis lung cancer (3LL) cells; assay: Inhibition on Platelet Aggregation Induced by Cancer Cells (in vitro), 3LL; format: cell-based, C57BL/6 mouse; set-up: key: +: Aggregation was observed.; ±: Aggregation was partially inhibited.; -: No aggregation was observed
Method: as §5

[13] = ADP-induced, read-out: IC50, platelet aggregation inhibition in vitro, ADP
[14] = collagen-induced, read-out: IC50, platelet aggregation inhibition in vitro, Collagen
[15] = ADP, *P<0.05, **P<0.01, read-out: Percent Inhibition of platelet aggregation, ADP
[16] = collagen, *P<0.05, **P<0.01, read-out: Percent Inhibition of platelet aggregation, Collagen
[17] = ADP, read-out: ex vivo % inhibition of platelet aggregation, ADP
[18] = collagen, read-out: ex vivo % inhibition of platelet aggregation, Collagen

| Structure (SMILES) | IC50 [1] [nM] | IC50 [2] [nM] | IC50 Ratio (PDE II) Heart/Platelet [3] | IC50 [3] [nM] | IC50 [4] [nM] | IC50 [5] [nM] | IC50 [6, 13] [nM] | IC50 [6, 14] [nM] | inhibition at 10 mg/kg [10, 17] [%] | inhibition at 10 mg/kg [10, 18] [%] | other results |
| --- | --- | --- | --- | --- | --- | --- | --- | --- | --- | --- | --- |
| O=C1CN2Cc3cc(N4CCCCC4)ccc3N=C2N1 [7-Piperidino Compound, reference compound] | 93000 | 54000 | 5.3 | 150 | > 100000 | 800 |  |  |  |  |  |
| Nc1cc(-c2ccncc2)c[nH]c1=O [Amrinone, 5Amino-(3,4bipyridin)-6(1H)--one, reference compound] | > 100000 |  |  |  | > 100000 | 34000 |  |  |  |  |  |
| Cl.Cl.Nc1ccc2c(c1)CN1CC(=O)NC1=N2 [BL-7-NH2, 7-amino-1,2,3,5-tetrahydroimidazo[2,1-b]quinazolin-2-one dihydrochloride, reference compound] |  |  |  |  |  |  | 170000 | 16000 |  |  | platelet aggregation inhibitory activity (in words) [6]: scarecely exhibited platelet aggregation inhibitory activity; IC50 [7]: 50000 nM |
| Cl.O=C1CN2Cc3c(sc4c3CCCC4)N=C2N1 [DH-6471, reference compound] | > 100000 | > 100000 | 7.1 | 65 | > 10000 | 460 |  |  |  |  |  |
| CN(C)c1cccc2c1CN1CC(=O)NC1=N2 [Example 2] |  |  |  |  |  |  | 2700 | 1500 |  |  |  |
| CC1CCCCN1c1ccc2c(c1)CN1CC(=O)NC1=N2 (stereo not drawn) [Example 5] | 45000 | 57000 | 2.3 | 350 | > 50000 | 800 | 2000 | 1700 |  |  | platelet aggregation inhibitory activity (in words) [6]: strong platelet aggregation inhibitory activity; activity on heart PDE (in words) [5]: strong activity on heart PDE; water-solubility (in words) [8]: water-soluble |
| O=C1CN2Cc3ccc(N4CCOCC4)cc3N=C2N1 [Example 8] |  |  |  |  |  |  |  |  |  |  | inhibition at 1 mg/kg [9, 15]: 16.5%; inhibition at 1 mg/kg [9, 16]: 48.5% |
| O=C1CN2Cc3c(ccc(N4CCCCC4)c3Cl)N=C2N1 [Example 9] |  |  |  |  |  |  | 7900 | 1200 | 25 | 32 |  |
| CN(C)c1cc2c(cc1Cl)NC1=NC(=O)CN1C2 [Example 15] | 3900 | 5100 | 1.7 | 63 | > 100000 | 110 | 1100 | 440 | 28 | 49 | platelet aggregation inhibitory activity (in words) [6]: strong platelet aggregation inhibitory activity; Inhibition on platelet aggregation induced by B16 ([11]; sample concn. 0.1 μM): +; Inhibition on platelet aggregation induced by B16 ([11]; sample concn. 0.3 μM): -; Inhibition on platelet aggregation induced by B16 ([11]; sample concn. 1 μM): -; Inhibition on platelet aggregation induced by B16 ([11]; sample concn. 3 μM): -; Inhibition on platelet aggregation induced by 3LL ([12]; sample concn. 0.3 μM): ±; Inhibition on platelet aggregation induced by 3LL ([12]; sample concn. 1 μM): -; Inhibition on platelet aggregation induced by 3LL ([12]; sample concn. 3 μM): -; activity on heart PDE (in words) [5]: strong activity on heart PDE; water-solubility (in words) [8]: water-soluble |
| O=C1CN2Cc3cc(N4CCOCC4)c(Cl)cc3N=C2N1 [Example 17] |  |  |  |  |  |  | 360 | 100 | 47 | 68 |  |
| Cc1cc2c(cc1N1CCCCC1)CN1CC(=O)NC1=N2 [Example 18] |  |  |  |  |  |  | 5400 | 580 |  |  |  |
| CN(C)c1ccc2c(c1Cl)CN1CC(=O)NC1=N2 [Example 22] | 1600 | 2900 | 1.2 | 150 | > 100000 | 180 | 7000 | 1200 | 64 | 86 | platelet aggregation inhibitory activity (in words) [6]: strong platelet aggregation inhibitory activity; inhibition at 1 mg/kg [9, 15]: 23.5%; inhibition at 1 mg/kg [9, 16]: 100%; activity on heart PDE (in words) [5]: strong activity on heart PDE; water-solubility (in words) [8]: water-soluble |
| CCN(CC)c1ccc2c(c1Cl)CN1CC(=O)NC1=N2 [Example 23] |  |  |  |  |  |  | 5600 | 1300 | 25 | 70 |  |
| O=C1CN2Cc3cc(N4CCCC4)ccc3N=C2N1 [Example 26, 7-pyrrolidino-1,2,3,5-tetrahydroimidazo[2,1-b]quinazolin-2-one dihydrochloride] |  |  |  |  |  |  | 2600 | 1900 |  |  |  |
| O=C1CN2Cc3cc(N4CCOCC4)ccc3N=C2N1 [Example 28] |  |  |  |  |  |  | 5000 | 2000 |  |  |  |
